Results from patent publication EP0022969A1, “Antimycotic compositions containing azolylalkenols and their preparation” (BAYER AG, priority 1979, dated 1981).

System: Trichophyton mentagrophytes
Experiment: Antimicrobial in vivo activity (local) in experimental guinea pig trichophytosis
Parameters: species or system Meerschweinchen der Rasse Pirbright-white
Settings: guinea pigs infected with Trichophyton mentagrophytes; 1% solution in DMSO:glycerol 1:4, local, once daily from day 3 p.i.; meaning only slight redness and isolated scales, or no signs of infection
Source text: Weiße Meerschweinchen der Rasse Pirbright-white wurden auf dem geschorenen, nicht skarifizierten Rücken mit einer Mikro- und Makrokonidien-Suspension von Trichophyton mentagrophytes infiziert.
Die infizierten Tiere wurden, beginnend mit dem 3.Tag p.i., 1 x täglich mit 1%-iger Lösung der erfindungsgemäßen Präparate (in Dimethylsulfoxid:Glycerin=1:4) lokal behandelt.
Bei unbehandelten Tieren entwickelt sich innerhalb von 12 Tagen p.i. das typische Bild einer Dermatophytose mit Rötung, Schuppung und Haarausfall bis zum totalen Integument-Defekt an der Infektionsstelle.

SMILES | Wirkung (Infektionszeichen)
CC(C)(C)C(O)C(=Cn1ccnc1)Oc1ccc(F)cc1 (stereo not drawn) [Beispiel 1] | gute bis sehr gute Wirkung
CC(C)(C)C(O)C(=Cn1ccnc1)Oc1ccccc1Cl (stereo not drawn) [Beispiel 5] | gute bis sehr gute Wirkung
CC(C)(C)C(O)C(=Cn1ccnc1)Oc1ccc(F)cc1Cl (stereo not drawn) [Beispiel 9] | gute bis sehr gute Wirkung
